According to publication PMC8777613, “Effect of Hydroxyl Groups Esterification with Fatty Acids on the Cytotoxicity and Antioxidant Activity of Flavones” (Molecules, 2022):
Read-outs that look alike come from different tables or passages of the source.

Assays:
[1] = MTT dye reduction viability test, HaCaT; format: cell-based, human; conditions: human; for viability at 72 h, 10 µM / viability at 72 h, 20 µM / viability at 72 h, 40 µM / viability at 72 h, 60 µM / viability at 72 h, 80 µM / viability at 72 h, 100 µM: HaCaT
Description: (§1) We have chosen two types of cell culture lines: human prostate cancer cells (PC3) and normal human immortal keratinocyte cells (HaCaT) (Table 1).
(§2) Human prostate cancer cells (PC3) and human immortal keratinocyte cell line from adult human skin (HaCaT) were obtained from American Type Culture Collection (Teddington, UK) and cultured according to its instructions RPMI 1640 (L0490) medium or DMEM (L0102) medium, respectively, in a 95% air and 5% CO2 humidified incubator at 37 °C. Both media (Biowest) were supplemented with 10% fetal bovine serum (FBS), 100 U/mL penicillin and 100 μg/mL streptomycin. 10 mM stock solutions of tested compounds in DMSO were prepared.
(§3) To assess the cells growth inhibition, the MTT dye reduction test was preformed based on the method described by Präbst et al.. Both PC3 and HaCaT cells (1 × 10^3/well) were seeded into 96-well plates and incubated for 24 h to attach to the bottom of the well in appropriate medium (200 μL) and treated with tested compounds (0–100 μM). The medium with compounds was removed after 72 h and MTT (0.5 mg/mL) in fresh growth medium without serum was added to each well. The plates were incubated in dark for 4 h at 37 °C. Then, the solution in each well was removed and refilled with 100 μL DMSO: isopropanol (1:1) to dissolve formazon crystals. The optical density was measured with an UVM 340 (ASYS Hitech GmbH, Austria) microplate reader at 570 nm. Replicates of three wells for each dosage, including vehicle control, were analyzed for each experiment. The experiments were conducted in triplicate. The results are expressed as IC50 values. The value of IC50 was estimated using CompuSyn version 1.0.

rat brain homogenate = assay: Lipid peroxidation (MDA/TBA) induced by FeCl2 and ascorbic acid; format: biochemical; conditions: for MDA concentration: oxidation by 0.1% FeCl2 and 1 mM ascorbic acid, 1 h 37 °C, control 9.644 ± 1.570
Description: The antioxidant potential of the new flavone derivatives was assessed based on the analysis of malondialdehyde concentration formed as a product of lipid oxidation stimulated by iron (II) ions.
After preparation, the brain was placed on an ice plate and washed with cold 0.9% NaCl. 10% (m/v) brain solution was obtained by homogenization in cold 10 mM TRIS-HCl buffer, pH = 7.5. The homogenate was centrifuged (2000 rpm, 10 min, 4 °C) to obtain supernatant 1 (S1).
100 µM stock solutions of test compounds in DMSO were prepared. The test compound solution was added to a […] S1 homogenate to a final concentration of 10 µM.
The oxidation reaction was induced by adding to the samples with or without the test compounds freshly prepared solutions: 0.1% FeCl2 (0.2 mL) and 1 mM ascorbic acid (0.4 mL). After incubation for 1 h at 37 °C, the reaction was stopped by adding 8.1% sodium dodecyl sulfate (SDS) solution. In order to determine the concentration of MDA, the acetic acid/HCl buffer at pH = 3.4 and 120 μL of 0.8% thiobarbituric acid (TBA) solution at pH = 6 were added to the samples. The samples were incubated for 1 h at 100 °C. After incubation, the samples were cooled on ice and centrifuged for 10 min at 4000 RPM. The absorbance was measured at a wavelength of 532 nm. Blank content: 0.5 mL of acetate buffer + 0.5 mL of TBA solution.
Calculation of malondialdehyde (MDA) concentration (Equation (1)):(1) MDA concentration=∆ A532 nm × 1.56 ×10^−6 [nmol MDA/h/g tissue]

[2] = test system: human prostate cancer cells (PC3); assay: MTT dye reduction viability test, PC3; format: cell-based; conditions: for IC50 / viability at 10 µM / viability at 20 µM / viability at 40 µM / viability at 60 µM / viability at 80 µM / viability at 100 µM: Homo sapiens; for IC50: read-out: Cytotoxic activity IC50, PC3; for viability at 10 µM: PC3, 10 µM; for viability at 20 µM: PC3, 20 µM; for viability at 40 µM: PC3, 40 µM; for viability at 60 µM: PC3, 60 µM; for viability at 80 µM: PC3, 80 µM
Description: as §1, §2, §3

[3] = HaCaT cells (immortal keratinocytes), 72 h exposure, MTT, mean ± SD, read-out: Cytotoxic activity IC50, HaCaT
[4] = HaCaT cells (immortal keratinocytes), 72 h, representative MTT result (Table S1 B)
[5] = HaCaT cells (immortal keratinocytes), 100 µM, 72 h, representative MTT result (Table S1 B), read-out: Cells viability
[6] = 72 h, representative MTT result (Table S1 A)
[7] = PC3, 100 µM, 72 h, representative MTT result (Table S1 A), read-out: Cells viability

Row | SMILES | IC50 at 72 h [1, 3] [µM] | viability at 72 h, 10 µM [1, 4] [%] | viability at 72 h, 20 µM [1, 4] [%] | viability at 72 h, 40 µM [1, 4] [%] | viability at 72 h, 60 µM [1, 4] [%] | viability at 72 h, 80 µM [1, 4] [%] | viability at 72 h, 100 µM [1, 5] [%] | MDA concentration (rat brain homogenate; 10 µM compound) [mM × 10^−3] | IC50 ([2]; 72 h exposure, MTT, mean ± SD) [µM] | viability at 10 µM [2, 6] [%] | viability at 20 µM [2, 6] [%] | viability at 40 µM [2, 6] [%] | viability at 60 µM [2, 6] [%] | viability at 80 µM [2, 6] [%] | viability at 100 µM [2, 7] [%] | melting point [°C] | further results
1 | O=C1CC(c2ccccc2)Oc2ccc(O)cc21 (stereo not drawn) [6-Hydroxy-Flavanone, 6-hydroxy-flavanone, reference compound] | > 100 | 99.7 | 115 | 113 | 104 | 72.2 | 74.4 | 7.077 ± 1.815 | > 100 | 96.4 | 96 | 96 | 96.7 | 96.4 | 96.8 | – | viability at 72 h, 100 µM ([1]; HaCaT cells (immortal keratinocytes), 100 μM, 72 h incubation, read-out: cells viability compared to control cells): 73%; reduction of the level of MDA compared to the control sample (rat brain homogenate; 10 µM compound, rat brain homogenate): 26.62%; viability at 100 µM ([2]; PC3, 100 μM, 72 h incubation, read-out: cells viability compared to control cells): 89%
2 | CCCCCC=CCC=CCCCCCCCC(=O)Oc1ccc2c(c1)C(=O)CC(c1ccccc1)O2 (stereo not drawn) [6-Linoleic-Flavanone, 6-hydroxy-flavanone linoleic ester] | 80 ± 4.75 | 95.7 | 93.8 | 86.8 | 73.4 | 50.3 | 34.9 | – | 48.3 ± 8.73 | 94.7 | 76.5 | 53.3 | 45.4 | 31.2 | 20.2 | – | –
3 | CC=CC=CC(=O)Oc1ccc2c(c1)C(=O)CC(c1ccccc1)O2 (stereo not drawn) [6-Sorbic-Flavanone, 6-hydroxy-flavanone sorbic ester] | 79.8 ± 2.21 | 98.7 | 96.7 | 89.6 | 75.7 | 56.7 | 31.4 | 6.938 ± 0.392 | 54.7 ± 5.25 | 95.6 | 88.7 | 82.1 | 41.3 | 28.7 | 32.6 | 129.4 to 130.8 | antioxidant potential compared to the original compound (in words) (rat brain homogenate; MDA in rat brain homogenate): slight increase in antioxidant potential
4 | CCCCCC=CCC=CCCCCCCCC(=O)Oc1ccc2c(=O)cc(-c3ccccc3)oc2c1 [7-Linoleic-Flavone, 7-hydroxy-flavone linoleic ester] | 65 ± 4.12 | 88.4 | 73.2 | 74.5 | 57 | 44.6 | 34 | 8.010 ± 0.008 | 41.2 ± 2.3 | 84.6 | 70.4 | 46.7 | 35.9 | 34.3 | 39.5 | – | –
5 | CCC=CCC=CCC=CCCCCCCCC(=O)Oc1ccc2c(=O)cc(-c3ccccc3)oc2c1 [7-Linolenic-Flavone, 7-hydroxy-flavone linolenic ester] | 45.4 ± 9.2 | 106 | 90.5 | 66 | 19.4 | 15.8 | 14.6 | – | > 100 | 90.2 | 86.3 | 81.7 | 79.4 | 86.8 | 86.7 | – | cytotoxic potential in PC3 cells (in words) ([2]; PC3, 0–100 μM, 72 h): no cytotoxic potential
6 | CCCCCCCCC=CCCCCCCCC(=O)Oc1ccc2c(=O)cc(-c3ccccc3)oc2c1 [7-Oleic-Flavone, 7-hydroxy-flavone oleic ester] | 44.9 ± 6.44 | 95.3 | 79.3 | 51.9 | 39.9 | 38.7 | 44.9 | 8.465 ± 0.834 | 39.3 ± 2.11 | 92.2 | 80.8 | 48.2 | 41 | 42.2 | 38.9 | 73.3 to 74.5 | –
7 | CC=CC=CC(=O)Oc1ccc2c(=O)cc(-c3ccccc3)oc2c1 [7-Sorbic-Flavone, 7-hydroxy-flavone sorbic ester] | 50.8 ± 2.48 | 97.5 | 87.2 | 80.1 | 41 | 57.4 | 43.7 | 8.361 ± 0.050 | 94.3 ± 4.24 | 84 | 80.9 | 93.6 | 74.5 | 69.6 | 75.2 | 137.8 to 139.7 | –
8 | CCCCCCCCCCCCCCCCCC(=O)Oc1ccc2c(=O)cc(-c3ccccc3)oc2c1 [7-Stearic-Flavone, 7-hydroxy-flavone stearic ester] | 45.6 ± 7.2 | 95.8 | 65.3 | 59.1 | 39.8 | 35.7 | 20.7 | 8.151 ± 0.343 | 33.2 ± 4.81 | 100 | 87.7 | 41.8 | 32.2 | 47.9 | 27.5 | 84.5 to 85.7 | –
9 | O=c1cc(-c2ccccc2)oc2ccc(O)cc12 [Compound 13, 6-Hydroxy-Flavone, reference compound] | – | 96.4 | 83.8 | 77.9 | 95.1 | 84.9 | 87.8 | – | – | 89.4 | 87.8 | 99 | 110 | 87 | 73.2 | – | –
10 | COc1cccc2c1C(=O)c1c(O)c3c(c(O)c1C2=O)C[C@@](O)(C(=O)CO)C[C@@H]3O[C@H]1C[C@H](N)[C@H](O)[C@H](C)O1 [doxorubicin, reference compound] | – | – | – | – | – | – | – | – | – | – | – | – | – | – | – | – | IC50 at 72 h ([1]; Cytotoxic activity IC50, HaCaT): 0.31 µM; IC50 ([2]; 72 h): 0.29 µM
